The text below walks through data of patent US8158631B2, “Heterocyclic antiviral compounds” (Roche Palo Alto LLC, priority 2009, dated 2012).

Data set [1] concerns the target T1, HCV polymerase (NS5B570n-Con1) (Hepatitis C virus genotype 1b, UniProt Q9WMX2).
T1 construct: contains a 21 amino acid deletion at the C-terminus relative to the full-length HCV polymerase; made in house; host or cells: E. coli strain BL21(DE) pLysS, plasmid pET17b
Nature of the data set: HCV NS5B RNA polymerase activity (HCV Polymerase Assay). Format: biochemical, HCV Con1 strain. Here is the method: The enzymatic activity of HCV polymerase (NS5B570n-Con1) was measured as the incorporation of radiolabeled nucleotide monophosphates into acid insoluble RNA products. Unincorporated radiolabeled substrate was removed by filtration and scintillant was added to the washed and dried filter plate containing radiolabeled RNA product. The amount of RNA product generated by NS5B570-Con1 at the end of the reaction was directly proportional to the amount of light emitted by the scintillant.
The N-terminal 6-histidine tagged HCV polymerase, derived from HCV Con1 strain, genotype 1b (NS5B570n-Con1) contains a 21 amino acid deletion at the C-terminus relative to the full-length HCV polymerase and was purified from E. coli strain BL21(DE) pLysS. The construct, containing the coding sequence of HCV NS5B Con1 (GenBank accession number AJ242654) was inserted into the plasmid construct pET17b, downstream of a T7 promoter expression cassette and transformed into E. coli. A single colony was grown overnight as a starter culture and later used inoculate 10 L of LB media supplemented with 100 μg/mL ampicillin at 37° C. Protein expression was induced by the addition of 0.25 mM isopropyl-β-D-thiogalactopyranoside (IPTG) when optical density at […] of the culture was between 0.6 and 0.8 and cells were harvested after 16 to 18 h at 30° C. NS5B570n-Con1 was purified to homogeneity using a three-step protocol including subsequent column chromatography on Ni-NTA, SP-Sepharose HP and Superdex 75 resins.
Each 50 μL enzymatic reaction contained 20 nM RNA template derived from the complementary sequence of the Internal Ribosome Entry Site (cIRES), 20 nM NS5B570n-Con1 enzyme, 0.5 μCi of tritiated UTP (Perkin Elmer catalog no. TRK-412; specific activity: 30 to 60 Ci/mmol; stock solution concentration from 7.5×10^−5 M to 20.6×10^−6 M), 1 μM each ATP, CTP, and GTP, 40 mM Tris-HCl pH 8.0, 40 mM NaCl, 4 mM DTT (dithiothreitol), 4 mM MgCl2, and 5 μL of compound serial diluted in DMSO. Reaction mixtures were assembled in 96-well filter plates (cat #MADVNOB, Millipore Co.) and incubated for 2 h at 30° C. Reactions were stopped by addition of 10% final (v/v) trichloroacetic acid and incubated for 40 min at 4° C. Reactions were filtered, washed with 8 reaction volumes of 10% (v/v) trichloroacetic acetic acid, 4 reaction volumes of 70% (v/v) ethanol, air dried, and 25 μL of scintillant (Microscint 20, Perkin-Elmer) was added to each reaction well.
The amount of light emitted from the scintillant was converted to counts per minute (CPM) on a Topcount® plate reader (Perkin-Elmer, Energy Range: Low, Efficiency Mode Normal, Count Time: 1 min, Background Subtract: none, Cross talk reduction: Off).
Data was analyzed in Excel® (Microsoft®) and ActivityBase® (Idbs®). The reaction in the absence of enzyme was used to determine the background signal, which was subtracted from the enzymatic reactions. Positive control reactions were performed in the absence of compound, from which the background corrected activity was set as 100% polymerase activity. All data was expressed as a percentage of the positive control.
The compound concentration at which the enzyme-catalyzed rate of RNA synthesis was reduced by 50% (IC50) was calculated by fitting equation (i) to the data where“Y”
[formula] corresponds to the relative enzyme activity (in %), “% Min” is the residual relative activity at saturating compound concentration, “% Max” is the relative maximum enzymatic activity, “X” corresponds to the compound concentration, and “S” is the Hill coefficient (or slope).

A further data set has as its system HCV. The conditions noted are these: cited from earlier work.

The melting point is the temperature of the solid-liquid transition. Usually IC50 stands for the concentration needed to halve the response being measured. Read a high IC50 as weaker potency in that assay. Take `COc1c(CCc2ccc(NS(C)(=O)=O)cc2)cc(N2CCNC2=O)cc1C(C)(C)C` [Compound I-4]: the melting point lay within 229 to 231 °C. The same molecule yielded an IC50 in data set [1] of 32 nM.
In turn, `COC(=O)c1cc(NS(C)(=O)=O)ccc1/C=C/c1cc(-n2ccncc2=O)cc(C(C)(C)C)c1OC` [Compound I-15, 2-{(E)-2-[3-tert-Butyl-2-methoxy-5-(2-oxo-2H-pyrazin-1-yl)-phenyl]-vinyl}-5-methanesulfonylamino-benzoic acid methyl ester] yielded a 50% inhibitory concentration (IC50) in data set [1] of 1 nM.
`COc1c(/C=C/c2ccc(NS(C)(=O)=O)cc2)cc(N2CCCCC2=O)cc1C(C)(C)C` [Compound I-8, N-(4-{(E)-2-[3-tert-Butyl-2-methoxy-5-(2-oxo-piperidin-1-yl)-phenyl]-vinyl}-phenyl)-methanesulfonamide] gave a melting point of 247 to 249 °C. Also, the 50% inhibitory concentration (IC50) in data set [1] came out at 16 nM.
For the molecule `COc1c(CCc2ccc(NS(C)(=O)=O)cc2)cc(N2CCCS2(=O)=O)cc1C(C)(C)C` [Compound I-20], the melting point fell in the range of 83 to 86 °C. In data set [1], this molecule gave an IC50 of 83 nM.
`COc1c(/C=C/c2ccc(NS(C)(=O)=O)cc2CO)cc(-n2ccncc2=O)cc1C(C)(C)C` [Compound I-17, N-(4-{(E)-2-[3-tert-Butyl-2-methoxy-5-(2-oxo-2H-pyrazin-1-yl)-phenyl]-vinyl}-3-hydroxymethyl-phenyl)-methanesulfonamide]: the melting point lay in the range of 238 to 240 °C. Moreover, the IC50 in data set [1] is 0.49 nM.
Molecule `COc1c(/C=C/c2ccc(NS(C)(=O)=O)cc2)cc(-n2ncccc2=O)cc1C(C)(C)C` [Compound I-11] displayed a melting point of 260 to 262 °C. In data set [1], this molecule came in with an IC50 of 0.38 nM.
On to `COc1c(/C=C/c2ccccc2C(=O)O)cc(-n2ccncc2=O)cc1C(C)(C)C` [Compound I-19, 2-{(E)-2-[3-tert-Butyl-2-methoxy-5-(2-oxo-2H-pyrazin-1-yl)-phenyl]-vinyl}-benzoic acid], for which the IC50 in data set [1] is 2 nM.
Consider `COc1c(-c2cc3ccc(NS(C)(=O)=O)cc3c(=O)o2)cc(-n2ccncc2=O)cc1C(C)(C)C` [Compound I-22], for which the melting point was in the range of 272 to 275 °C. This molecule also gave an IC50 in data set [1] of 3 nM.
The matching figures for `COc1c(CCc2ccc(NS(C)(=O)=O)cc2)cc(N2C(=O)NC(C)C2=O)cc1C(C)(C)C` (centres unmarked) [Compound I-25]: 211 to 212 °C and 19 nM.
The matching figures for `COc1c(CCc2ccc(NS(C)(=O)=O)cc2)cc(N2C(=O)CNC2=O)cc1C(C)(C)C` [Compound I-7, N-(4-{2-[3-tert-Butyl-5-(2,5-dioxo-imidazolidin-1-yl)-2-methoxy-phenyl]-ethyl}-phenyl)-methanesulfonamide]: 230 to 231 °C and 15 nM.
The matching figures for `COc1c(/C=C/c2ccc(NS(C)(=O)=O)cc2C(=O)O)cc(-n2ccncc2=O)cc1C(C)(C)C` [Compound I-16]: 176 to 179 °C and 0.39 nM.
The molecule `COc1c(/C=C/c2ccc(NS(C)(=O)=O)cc2)cc(-n2c(C)n[nH]c2=O)cc1C(C)(C)C` [Compound I-27, N-(4-{(E)-2-[3-tert-Butyl-2-methoxy-5-(3-methyl-5-oxo-1,5-dihydro-[1,2,4]triazol-4-yl)-phenyl]-vinyl}-phenyl)-methanesulfonamide] gave a melting point of 289 to 291 °C. Further, in data set [1], it took 0.3 nM to reach half-maximal inhibition (IC50).
`COc1c(/C=C/c2ccc(NS(C)(=O)=O)cc2)cc(-n2cnccc2=O)cc1C(C)(C)C` [Compound I-12] gave a melting point of 202 to 204 °C. The IC50 in data set [1] was determined as 1 nM.
The matching figures for `COc1c(CCc2ccc(NS(C)(=O)=O)cc2)cc(N2CCCNC2=O)cc1C(C)(C)C` [Compound I-3, N-(4-{2-[3-tert-Butyl-2-methoxy-5-(2-oxo-tetrahydro-pyrimidin-1-yl)-phenyl]-ethyl}-phenyl)-methanesulfonamide]: 244 to 246 °C and 13 nM.
`COc1c(/C=C/c2ccc(NS(C)(=O)=O)cc2C(=O)O)cc(N2CCCNC2=O)cc1C(C)(C)C` [Compound I-21] gave a melting point of 275 to 278 °C. Further, the midpoint of inhibition in data set [1], the IC50, lay at 0.23 nM.
For `COc1c(/C=C/c2ccc(NS(C)(=O)=O)cc2)cc(-n2cc(F)ccc2=O)cc1C(C)(C)C` [Compound I-10], the melting point was 248 to 250 °C. The IC50 in data set [1] was determined as 5 nM.
The molecule `COc1c(/C=C/c2ccccc2C(=O)O)cc(-n2ccccc2=O)cc1C(C)(C)C` [Compound I-18] registered an IC50 in data set [1] of 5 nM.
The same measure, in the same setting: with `COc1c(-c2nc3cc(NS(C)(=O)=O)ccc3o2)cc(N2CCCNC2=O)cc1C(C)(C)C` [Compound I-24, N-{2-[3-tert-Butyl-2-methoxy-5-(2-oxo-tetrahydro-pyrimidin-1-yl)-phenyl]-benzooxazol-5-yl}-methanesulfonamide] the figure was 63.3 nM.
As to `NC(=O)c1ncn([C@@H]2O[C@H](CO)[C@@H](O)[C@H]2O)n1` [ribavirin, 1-((2R,3R,4S,5R)-3,4-Dihydroxy-5-hydroxymethyl-tetrahydro-furan-2-yl)-1H-[1,2,4]triazole-3-carboxylic acid amide], the “patients with serum amino transferase levels reduced to normal” value in the data set with HCV (monotherapy) is recorded as 40 % of patients. Moreover, the “effect on serum levels of HCV-RNA” value in the data set with HCV (sole treatment / monotherapy) is “does not lower serum levels of HCV-RNA”.
Take `COc1c(/C=C/c2ccc(NS(C)(=O)=O)cc2)cc(-n2ccccc2=O)cc1C(C)(C)C` [Compound I-9, N-(4-{(E)-2-[3-tert-Butyl-2-methoxy-5-(2-oxo-2H-pyridin-1-yl)-phenyl]-vinyl}-phenyl)-methanesulfonamide]: the melting point fell in the range of 254 to 256 °C. For the same molecule, half-maximal inhibition in data set [1] (IC50) required 1 nM.
The molecule `CC(C)(C)c1cc(/C=C/c2ccc(NS(C)(=O)=O)cc2)cc(N2CCCNC2=O)c1` [I-I, N-(4-{(E)-2-[3-tert-Butyl-5-(2-oxo-tetrahydro-pyrimidin-1-yl)-phenyl]-vinyl}-phenyl)-methanesulfonamide] had a melting point of 235 to 237 °C. This molecule also displayed an IC50 in data set [1] of 15 nM.
As for `COc1c(CCc2ccc(NS(C)(=O)=O)cc2)cc(N2C(=O)CCNC2=O)cc1C(C)(C)C` [Compound I-6, N-(4-{2-[3-tert-Butyl-5-(2,6-dioxo-tetrahydro-pyrimidin-1-yl)-2-methoxy-phenyl]-ethyl}-phenyl)-methanesulfonamide], the IC50 in data set [1] was determined as 63 nM.
On to `COc1c(/C=C/c2ccc(NS(C)(=O)=O)cc2)cc(-n2ccc(=O)[nH]c2=O)c2c1C(C)(C)CO2` [Compound I-23, N-(4-{(E)-2-[7-(2,4-Dioxo-3,4-dihydro-2H-pyrimidin-1-yl)-4-methoxy-3,3-dimethyl-2,3-dihydro-benzofuran-5-yl]-vinyl}-phenyl)-methanesulfonamide], for which the melting point was in the range of 285 to 288 °C. Further, inhibition in data set [1] was half-maximal at 0.37 nM (IC50).
In turn, `COc1c(/C=C/c2ccc(NS(C)(=O)=O)cc2)cc(N2CCCNC2=O)cc1C(C)(C)C` [Compound I-2, N-(4-{(E)-2-[3-tert-Butyl-2-methoxy-5-(2-oxo-tetrahydro-pyrimidin-1-yl)-phenyl]-vinyl}-phenyl)-methanesulfonamide] returned an IC50 in data set [1] of 10 nM.
In turn, `COc1c(/C=C/c2ccc(NS(C)(=O)=O)cc2)cc(N2CCCNS2(=O)=O)cc1C(C)(C)C` [Compound I-26, N-(4-{(E)-2-[3-tert-Butyl-5-(1,1-dioxo-1λ^6-[1,2,6]thiadiazinan-2-yl)-2-methoxy-phenyl]-vinyl}-phenyl)-methanesulfonamide] gave a melting point of 255 to 257 °C. For the same molecule, in data set [1], the midpoint of inhibition, the IC50, lay at 5.1 nM.
